Results taken from ChEMBL document CHEMBL3885861, “Open TG-GATES”.

Species: Rattus norvegicus
Experiment: Open TG-GATES - Regimen: Daily Repeat
Format: toxicity, organism-based, Sprague-Dawley
Design: regimen Daily Repeat, gender Male, age 6 weeks
Conditions: in vivo, po, 100 mg/kg, route gavage, dose level Low; for APTT / Bas / Eos / Fbg / Hb / Ht / Lym / MCH / MCHC / MCV / Mono / Neu / PT / Plat / RBC / Ret / WBC: tissue Blood
[1] = 72 h, tissue Kidney, time 3 day
[2] = 72 h, tissue Plasma, time 3 day

`CC(S)C(=O)NCC(=O)O` (stereo unspecified) [TIOPRONIN] showed a TERMINAL_BW (72 h, time 3 day) of 228.4 g, an APTT (72 h, time 3 day) of 22 s and a Bas (72 h, time 3 day) of 0%. It also gave an Eos (72 h, time 3 day) of 1%, a Fbg (72 h, time 3 day) of 299.8 mg/dL and a Hb (72 h, time 3 day) of 13 g/dL. The Ht (72 h, time 3 day) was 39.1%, the Lym (72 h, time 3 day) was 77.8% and the MCH (72 h, time 3 day) was 19.9 pg. For the same compound, the MCHC (72 h, time 3 day) was 33.2%, the MCV (72 h, time 3 day) was 60.1 fL and the Mono (72 h, time 3 day) was 2.8%. For the same compound, the Neu (72 h, time 3 day) was 17.8%, the PT (72 h, time 3 day) was 15.6 s and the Plat (72 h, time 3 day) was 120.9 x10_4/uL. The RBC (72 h, time 3 day) was 652 x10_4/ul, the Ret (72 h, time 3 day) was 6.7% and the WBC (72 h, time 3 day) was 105.6 x10_2/uL. It also gave a KIDNEY_L [1] of 1 g, a KIDNEY_R [1] of 1 g and a KIDNEY_TOTAL [1] of 2 g. For the same compound, the LIVER (72 h, tissue Liver, time 3 day) was 10.8 g, the A/G [2] was 1.2 and the ALP [2] was 1580 IU/L. The ALT [2] was 43.6 IU/L, the AST [2] was 73.6 IU/L and the BUN [2] was 17 mg/dL. It also gave a CRE [2] of 0.2 mg/dL, a Ca [2] of 10.6 mg/dL and a Cl [2] of 106.4 meq/L. For the same compound, the DBIL [2] was 0 mg/dL, the GLC [2] was 189.4 mg/dL and the IP [2] was 7.4 mg/dL. For the same compound, the K [2] was 4.4 meq/L, the LDH [2] was 165.2 IU/L and the Na [2] was 140.8 meq/L. It also gave a PL [2] of 139.8 mg/dL, an RALB [2] of 3.1 g/dL and a TBIL [2] of 0.008 mg/dL. The TC [2] was 76.6 mg/dL, the TG [2] was 107.2 mg/dL and the TP [2] was 5.6 g/dL. It also gave a gamma-GTP [2] of 1.6 IU/L, a TERMINAL_BW ([…], time 7 day) of 255.1 g and a TERMINAL_BW ([…], time 14 day) of 321.9 g. The TERMINAL_BW ([…], time 28 day) was 376.7 g, the APTT ([…], time 7 day) was 22.4 s and the Bas ([…], time 7 day) was 0%. For the same compound, the Eos ([…], time 7 day) was 0.8%, the Fbg ([…], time 7 day) was 305.8 mg/dL and the Hb ([…], time 7 day) was 13.5 g/dL. The Ht ([…], time 7 day) was 39.7%, the Lym ([…], time 7 day) was 79.2% and the MCH ([…], time 7 day) was 20.9 pg. The MCHC ([…], time 7 day) was 34.1%, the MCV ([…], time 7 day) was 61.4 fL and the Mono ([…], time 7 day) was 2.4%. It also gave a Neu ([…], time 7 day) of 16.4%, a PT ([…], time 7 day) of 15.8 s and a Plat ([…], time 7 day) of 125.6 x10_4/uL. The RBC ([…], time 7 day) was 647 x10_4/ul, the Ret ([…], time 7 day) was 6.1% and the WBC ([…], time 7 day) was 109.7 x10_2/uL. For the same compound, the APTT ([…], time 14 day) was 24.5 s, the Bas ([…], time 14 day) was 0% and the Eos ([…], time 14 day) was 1%. For the same compound, the Fbg ([…], time 14 day) was 297 mg/dL, the Hb ([…], time 14 day) was 14.3 g/dL and the Ht ([…], time 14 day) was 41.1%. It also gave a Lym ([…], time 14 day) of 80.2%, an MCH ([…], time 14 day) of 20.8 pg and an MCHC ([…], time 14 day) of 34.8%. The MCV ([…], time 14 day) was 59.9 fL, the Mono ([…], time 14 day) was 2.4% and the Neu ([…], time 14 day) was 15.4%. The PT ([…], time 14 day) was 15.6 s, the Plat ([…], time 14 day) was 116.6 x10_4/uL and the RBC ([…], time 14 day) was 686.2 x10_4/ul. The Ret ([…], time 14 day) was 5.6%, the WBC ([…], time 14 day) was 147.7 x10_2/uL and the APTT ([…], time 28 day) was 25.2 s. It also gave a Bas ([…], time 28 day) of 0%, an Eos ([…], time 28 day) of 1.2% and a Fbg ([…], time 28 day) of 325.8 mg/dL. It also gave a Hb ([…], time 28 day) of 15.2 g/dL and a Ht ([…], time 28 day) of 43.1%.
